Data taken from patent publication US5500430A, “Amidic derivatives of glutamic, aspartic and 2-amino adipic acids, a process for preparing same, and anti-gastrin composition containing the derivatives” (Rotta Research Laboratorium S.p.A., priority 1990, dated 1996).
Like-named read-outs stand apart in the source and are kept apart here.

Experiments:
[1] = molecular target: T1, gastrin receptor sites on the cerebral cortex membranes of mice (Mus musculus, UniProt P56481); experiment: Inhibition of the binding of pentagastrin to mouse cortical membranes
T1 construct: Mouse cortical tissue; from tissue; host or cells: mouse cerebral cortex membranes
T1 sequence (P56481 1-453): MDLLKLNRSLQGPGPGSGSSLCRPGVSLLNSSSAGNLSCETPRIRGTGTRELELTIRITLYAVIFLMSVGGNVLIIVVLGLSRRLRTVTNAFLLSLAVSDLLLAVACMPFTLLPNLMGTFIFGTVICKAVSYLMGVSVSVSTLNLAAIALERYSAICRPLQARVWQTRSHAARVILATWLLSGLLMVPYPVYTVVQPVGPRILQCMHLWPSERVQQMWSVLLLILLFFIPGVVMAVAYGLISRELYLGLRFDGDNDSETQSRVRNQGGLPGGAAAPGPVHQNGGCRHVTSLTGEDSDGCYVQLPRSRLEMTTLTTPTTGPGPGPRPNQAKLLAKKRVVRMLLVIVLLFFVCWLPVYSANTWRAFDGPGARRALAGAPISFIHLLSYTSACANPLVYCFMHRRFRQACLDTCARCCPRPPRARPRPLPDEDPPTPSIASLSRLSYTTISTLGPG
Source text: Tests on binding to cerebral cortex membranes of mice
The capacities of some of the compounds of the invention to inhibit the binding of pentagastrin to the gastrin receptor sites on the cerebral cortex membranes of mice was to be evaluated. Pentagastrin tritiate[beta-alanyl-3-3H(N)] was used as the ligand.
Mouse cortical tissue Was homogenised cold in 20 volumes of tris buffer (pH 7.7). After washing and centrifuging, the final pellet was resuspended in 20 volumes of binding buffer containing, inter alia, TRIS, BSA and Bacitracin. 0.4 ml of the membrane thus obtained were then incubated with a radioactive tracer and the compounds under test for 40 minutes at 37° C.
After the supernatant liquid had been removed by centrifuging, the radioactivity associated with the pellet was determined with a liquid scintillator (a beta-counter). The specific binding was the difference between the binding in the absence and in the presence of 10^-5M pentagastrin.

[2] = test system: guinea-pig gall bladder contracted with CCK-8; experiment: Anticholecystokinin (anti-CCK) activity on guinea-pig gall bladders stimulated by CCK-8 in vitro; conditions: for Anti-CCK activity IC50: CCK-8 concentration 10 ng/ml, Krebs, 32° C.; for Antagonism of contracturant activity of CCK-8 relative to lorglumide (in words): vs lorglumide
Experimental: Anticholecystokinin (anti-cc, K) activity
In order to confirm the hypothesis that the molecular conformations of the compounds of the invention are suitable to provide them with antagonistic activity towards CCK as well as towards gastrin, the anticontracturant activities of some of the compounds of the invention were tested on guinea-pig gall bladders stimulated by CCK-8 in vitro.
A longitudinal strip of guinea-pig gall bladder was placed in a bath for isolated organs in the presence of Krebs at a temperature of 32° C. and oxygenated continuously with an oxygen-CO2 mixture (95-5 V/V).
The isometric contractions were detected by means of a force transducer and recorded.
The gall bladder was contracted with the use of a concentration of 10 ng/ml of CCK-8; the antagonistic activities of the compounds towards the contracturant effect of the CCK was determined with the use of different concentrations, thus determining the IC50 values, that is, the concentration of the compound in mcg/ml which can antagonise the contracturant effect of CCK by 50%.

[3] = test system: gastric acid secretion induced by pentagastrin; experiment: Antisecretive activity in anaesthetised rats (pentagastrin-stimulated gastric acid secretion); format: in vivo; conditions: pentagastrin 30 mcg/Kg/h; for ED50: Rattus norvegicus, iv, anaesthetised male rats, I.V. bolus, IN with bound, read-out: Antagonistic activity (ID50) towards gastric acid secretion induced by pentagastrin; for Antigastrin activity (in words): anaesthetised rats
Experimental: Antisecretive activity in anaesthetised rats
Antisecretive activity in rats was determined with the use of male animals each weighing about 200 g, anaesthetised with urethane. Gastric secretion was stimulated with pentagastrin. The method of K. S. Lai (Gut 5, (1964), 327-341) was used, slightly modified.
After tracheotomy, cannulae were inserted in the oesophagus and the duodenum. A tepid solution. (37° C.) of 0.25 mM NaOH was perfused and passed through the stomach by means of a peristaltic pump at a constant flow rate of 1 ml/minute. After stabilisation for 20 minutes, the stimulating agent, dissolved in a physiological solution, was perfused for 120 minutes at a dose of 30 mcg/Kg/h in a volume of 0.95 ml/hour. After perfusion for 60 minutes (the basal stimulation), the product under test was administered as an intravenous bolus (I.V.) and the perfusion of the stimulant continued for a further 60 minutes. Acid secretion was recorded continuously as a function of time.
The activity of the product was evaluated as the percentage reduction in the secreted acidity after the administration of the product compared with the base acidity measured during the first 60 minutes of collection during which only the pentagastrin was present.
Different doses of the antagonist compounds tested were administered so that an ID50, that is, the dose (in mg/Kg I.V.) capable of inhibiting the effect of pentagastrin by 50%, could be calculated.
The results thus obtained are illustrated in the following table (Table 1) in which the activities of the compounds are expressed as the ID50s under the stimulus of 30 mcg/Kg/h of pentagastrin.

[4] = pentagastrin tritiate ligand, 40 minutes at 37° C., read-out: IC50, inhibition of the binding of pentagastrin

SMILES	IC50 [1, 4] [nM]	ED50 [3] [mg/kg]	other results
O=C(O)CC[C@@H](NC(=O)c1cccc(Cl)c1)C(=O)N1CCC2(CCCCC2)CC1 [Compound C2]	140	33	Anti-CCK activity IC50 [2]: 4.9 µg/mL
O=C(O)CC[C@@H](NC(=O)c1cccc(Cl)c1)C(=O)N1CCC2(CCCC2)C1 [Compound C3]	–	75	Anti-CCK activity IC50 [2]: 43 µg/mL
O=C(O)CC[C@@H](NC(=O)c1cc(Cl)cc(Cl)c1)C(=O)N1CCC2(CCCC2)C1 [Compound C7]	–	60	–
O=C(O)CC[C@@H](NC(=O)c1ccc2ccccc2c1)C(=O)N1CCC2(CCCC2)CC1 [Compound C10]	100	45	Anti-CCK activity IC50 [2]: 1.0 µg/mL; Antagonism of contracturant activity of CCK-8 relative to lorglumide (in words) [2]: at concentrations no greater than those shown by lorglumide
O=C(O)CC[C@@H](NC(=O)c1cc2ccccc2[nH]1)C(=O)N1CCC2(CCCC2)CC1 [Compound C26]	–	> 75	–
O=C(O)CCCC(NC(=O)c1cccc(Cl)c1)C(=O)N1CCC2(CCCC2)CC1 (stereo not shown) [Compound D5]	1500	32	–
CC(C)c1ccc(C(=O)N[C@H](CCC(=O)O)C(=O)N2CCC3(CCCC3)CC2)cc1 [Compound C18]	–	28	–
N#Cc1cccc(C(=O)N[C@H](CCC(=O)O)C(=O)N2CCC3(CCCC3)CC2)c1 [Compound C16]	–	66	–
O=C(O)CCC(NC(=O)c1cccc(Cl)c1)C(=O)N1CCC2(CC1)OCC(CO)O2 (stereo not shown) [Compound D2]	–	85	IC50 [1]: > 10000 nM; Anti-CCK activity IC50 [2]: 108 µg/mL
CCCN(CCC)C(=O)C(CCC(=O)O)NC(=O)c1ccccc1 (stereo not shown) [Proglumide, proglumide, reference compound]	–	500	–
O=C(O)CC[C@@H](NC(=O)c1ccco1)C(=O)N1CCC2(CCCC2)CC1 [Compound C24]	–	> 75	–
Cc1cccc(C(=O)N[C@H](CCC(=O)O)C(=O)N2CCC3(CCCC3)CC2)c1 [Compound C11]	–	38	–
O=C(O)CC[C@@H](NC(=O)c1ccc(Cl)c(Cl)c1)C(=O)N1CCC2(CCCCC2)CC1 [Compound C20]	–	64	Anti-CCK activity IC50 [2]: 0.5 µg/mL; Antagonism of contracturant activity of CCK-8 relative to lorglumide (in words) [2]: at concentrations no greater than those shown by lorglumide
O=C(O)CC[C@@H](NC(=O)c1cccc(C(F)(F)F)c1)C(=O)N1CCC2(CCCC2)CC1 [Compound C17]	–	55	–
O=C(O)CC[C@@H](NC(=O)c1cc(Cl)cc(Cl)c1)C(=O)NCCC12CC3CC(CC(C3)C1)C2 [Compound C31]	–	20	Antigastrin activity (in words) [3]: particularly favourable
Cc1cc(C)cc(C(=O)N[C@H](CCC(=O)O)C(=O)N2CCC3(CCCC3)CC2)c1 [Compound C13]	–	33	–
O=C(O)CCC(NC(=O)c1cc(Cl)cc(Cl)c1)C(=O)NC1CCC2CCCCC2C1 (stereo not shown) [Compound D7]	–	48	–
O=C(O)CC(NC(=O)c1cccc(Cl)c1)C(=O)N1CCC2(CCCC2)CC1 (stereo not shown) [Compound D4]	6800	70	Anti-CCK activity IC50 [2]: 36 µg/mL
O=C(O)CC[C@@H](NC(=O)c1cnc2ccccc2c1)C(=O)N1CCC2(CCCCC2)CC1 [Compound C21]	510	> 75	Anti-CCK activity IC50 [2]: 0.2 µg/mL; Antagonism of contracturant activity of CCK-8 relative to lorglumide (in words) [2]: at concentrations no greater than those shown by lorglumide

SMILES	IC50 [1, 4] [nM]	ED50 [3] [mg/kg]	other results
O=C(O)CC[C@@H](NC(=O)c1cnc2ccccc2c1)C(=O)N1CCC2(CCCC2)CC1 [Compound C19]	–	68	Anti-CCK activity IC50 [2]: 1.5 µg/mL; Antagonism of contracturant activity of CCK-8 relative to lorglumide (in words) [2]: at concentrations no greater than those shown by lorglumide
O=C(O)CC[C@H](NC(=O)c1cccc(Cl)c1)C(=O)N1CCC2(CCCC2)CC1 [Compound C32]	26000	> 100	Antigastrin activity (in words) [3]: completely inactive up to a dose of 100 mg/Kg
O=C(O)CCC(NC(=O)c1cccc(Cl)c1)C(=O)N1CCC2(CC1)OCCS2 (stereo not shown) [Compound D3]	–	67	–
O=C(O)CC[C@@H](NC(=O)c1cccc(Cl)c1)C(=O)N1CCC2CCCCC2C1 (stereo partly shown) [Compound C29]	800	35	Anti-CCK activity IC50 [2]: 234 µg/mL
O=C(O)CC[C@@H](NC(=O)c1cc(Cl)cc(Cl)c1)C(=O)NC1CCC2(CCCCC2)CC1 [Compound C23]	320	40	–
O=C(O)CCC(NC(=O)c1cccc(Cl)c1)C(=O)N1CCC2(CC1)SCCS2 (racemic) [Compound D1, (R,S) (±)-4-[(3-chlorobenzoyl)amino]-5-(1.4-dithia-8-azaspiro[4.5]decan-8-yl)-5-oxopentanoic acid]	2600	> 75	–
O=C(O)CC[C@@H](NC(=O)c1cccnc1Cl)C(=O)N1CCC2(CCCC2)CC1 [Compound C25]	–	69	–
O=C(O)CC[C@@H](NC(=O)c1cc(Cl)cc(Cl)c1)C(=O)N1CCC2(CCCCC2)C1 [Compound C6]	320	45	–
O=C(O)CC[C@@H](NC(=O)c1cccc(Cl)c1)C(=O)NCCC12CC3CC(CC(C3)C1)C2 [Compound C30]	30	25	Anti-CCK activity IC50 [2]: 59 µg/mL; Antigastrin activity (in words) [3]: particularly favourable
COc1cccc(C(=O)N[C@H](CCC(=O)O)C(=O)N2CCC3(CCCC3)CC2)c1 [Compound C15]	–	46	–
O=C(O)CCC(NC(=O)c1cccc(Cl)c1)C(=O)NC1CCC2CCCCC2C1 (stereo not shown) [Compound D6]	–	60	–
CCc1cccc(C(=O)N[C@H](CCC(=O)O)C(=O)N2CCC3(CCCC3)CC2)c1 [Compound C12]	–	38	–
O=C(O)CC[C@@H](NC(=O)c1cccc([N+](=O)[O-])c1)C(=O)N1CCC2(CCCC2)CC1 [Compound C14]	8100	68	–
O=C(O)CC[C@@H](NC(=O)c1cccc(Cl)c1Cl)C(=O)N1CCC2(CCCC2)CC1 [Compound C9]	–	40	–
O=C(O)CC[C@@H](NC(=O)c1cc(Cl)cc(Cl)c1)C(=O)N1CCC2(CC1)OCCO2 [Compound C28]	–	70	–
O=C(O)CC[C@@H](NC(=O)c1cccc(Cl)c1)C(=O)N1CCC2(CCCCC2)C1 [Compound C4]	–	49	–
O=C(O)CC[C@@H](NC(=O)c1cccc(Cl)c1)C(=O)N1CCC2(CC1)OCCO2 [Compound C27]	–	81	–
O=C(O)CC[C@@H](NC(=O)c1cccc(Cl)c1)C(=O)NC1CCC2(CCCCC2)CC1 [Compound C22]	–	55	–
CCCCCN(CCCCC)C(=O)C(CCC(=O)O)NC(=O)c1ccc(Cl)c(Cl)c1 (stereo not shown) [Lorglumide, lorglumide, reference compound]	–	> 100	Anti-CCK activity IC50 [2]: 0.06 µg/mL; Antigastrin activity (in words) [3]: completely inactive up to a dose of 100 mg/Kg
